Assay results from article PMC12087874, “Biaryl Phosphates and Phosphonates as Selective Inhibitors of the Transcription Factor STAT4” (Angewandte Chemie (International Ed. in English), 2025).
Where a chain is given by its changes, count along the chain named.

Columns and labels:
Format in all cases: binding
STAT3 = STAT3 (Homo sapiens, UniProt P40763); assay: CETSA of STAT3 in lysates from NK-92 cells; set-up: endogenous in cells; host or cells: NK-92 (DSMZ) lysate
Protocol: NK-92 cells (DSMZ) were cultured in -MEM containing 12.5% fetal bovine serum (FBS), 12.5% horse serum, 2 mM L-glutamine, penicillin/streptomycin and 50 U/ml IL -2.
NK-92 cells were treated with test compound or DMSO in 1.5 ml medium in 12 -well plates (Corning) for 2 h (final DMSO concentration 0.2%), in the presence of 50 ng/ml IL -12 (PeproTech). […] Cells were harvested by washing twice with ice -cold TBS, followed by resuspension in TBS supplemented with protease/phosphatase inhibitors (100 ng/ml aprotinin, 1 mM Na3VO4, 10 mM NaF, 1 mM PMSF). […] Cells were lysed using three freeze -thaw cycles with liquid nitrogen and lysates cleared by centrif ugation.
NK-92 cell lysates were prepared for CETSA experiments by washing cultured cells once with TBS and resuspending in TBS supplemented with Halt Protease In hibitor Cocktail, EDTA-free (Fisher Scientific) at 3 x 10^6 cells per 100 µl. Cells were lysed using three freeze -thaw cycles with liquid nitrogen and lysates cleared by centrifugation.
CETSA experiments were performed essentially using the published protocol. […] Briefly, NK-92 cell lysates were incubated with test compound or DMSO for 15 min at room temperature (final DMSO concentration 2%). During this time, the treated lysate was divided into 10x 50 µl aliquots in 0.2 ml reaction tubes. Samples were then heated to the designated temperatures in a Veriti Pro Thermocycler (Thermo Fishe r Scientific) for 3 min, followed by 3 min incubation at room temperature, and then placed on ice. […] The soluble fractions were subsequently analyzed by Western blotting.
The components of cell lysates from treated cells, or heat-treated lysates from CETSA, were separated by SDS-PAGE (10%), transferred to nitrocellulose membrane (Bio-Rad) and detected using monoclonal rabbit primary antibodies (Cell Signaling), -rabbit-HRP secondary antibody (Dako) and Western Lightning Plus chemiluminescence reagent (Perkin Elmer).
Bands were visualized using an ImageQuant system (GE Healthcare) and quantitated using ImageJ software (NIH).

STAT4 Lys580Ala = target: T1, STAT4 Lys580Ala (Homo sapiens, UniProt Q14765, K580A); assay: Isothermal titration calorimetry (ITC), STAT4 Lys580Ala; conditions: n = 4
T1 construct: 6xHis; made in house
T1 sequence (Q14765 1-748 K580A): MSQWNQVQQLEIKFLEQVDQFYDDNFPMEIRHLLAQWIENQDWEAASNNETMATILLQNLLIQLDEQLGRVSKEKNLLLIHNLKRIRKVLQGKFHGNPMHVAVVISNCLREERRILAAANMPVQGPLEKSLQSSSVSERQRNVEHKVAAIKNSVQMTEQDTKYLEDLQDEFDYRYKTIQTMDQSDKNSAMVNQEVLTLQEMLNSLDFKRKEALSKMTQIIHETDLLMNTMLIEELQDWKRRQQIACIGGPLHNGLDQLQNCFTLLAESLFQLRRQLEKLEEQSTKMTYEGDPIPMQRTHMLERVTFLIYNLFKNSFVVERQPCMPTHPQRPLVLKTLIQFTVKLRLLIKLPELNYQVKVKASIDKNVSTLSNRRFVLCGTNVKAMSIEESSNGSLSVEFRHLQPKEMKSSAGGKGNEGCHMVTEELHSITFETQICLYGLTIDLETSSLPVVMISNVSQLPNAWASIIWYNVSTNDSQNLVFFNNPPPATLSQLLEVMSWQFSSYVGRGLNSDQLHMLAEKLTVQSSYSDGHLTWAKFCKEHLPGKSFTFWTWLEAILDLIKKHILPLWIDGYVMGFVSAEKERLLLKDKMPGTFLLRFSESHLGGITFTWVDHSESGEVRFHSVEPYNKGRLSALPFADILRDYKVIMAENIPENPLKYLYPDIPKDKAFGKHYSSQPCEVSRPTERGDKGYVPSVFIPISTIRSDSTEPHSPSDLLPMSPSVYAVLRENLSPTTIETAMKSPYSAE
Protocol: Isothermal Titration Calorimetry
Purification of 6xHis-tagged proteins for ITC experiments was carried out by affinity chromatography on His-Bind resin. The eluting fractions were analyzed by SDS -PAGE.
Proteins were dialyzed against ITC buffer (10 mM Tris pH 8.0, 50 mM NaCl) using dialysi s tubing with a 50 kDa cut-off. ITC experiments were performed using a VP-ITC Micro Calorimeter (MicroCal). 6m was dissolved as a 100 mM stock in DMSO and diluted 1/1000 in ITC buffer (Tris pH 8.0 and 50 mM NaCl), resulting in a final concentration of 100 µM. 8k was dissolved as a 5 mM stock in ITC buffer and diluted 1/25 in ITC buffer with DMSO, resulting in a final concentration of 200 µM 8k. DMSO was added to a final concentration of 2% (v/v). To avoid errors caused by the detection of dilution heat, 0.1 % (v/v) DMSO for 6m or 2% (v/v) DMSO for 8k experiments was added to the buffers containing the proteins and to the reference buffer. Proteins were degassed before the experiments using a ThermoVac sample degassing station. The following conditions were used for ITC experiments: 10 µM STAT4 protein for 6m or 20 µM STAT4 protein for 8k experiments, 100 µM 6m or 200 µM 8k, 28 injections with 10 µL single injection volume, 250 s initial delay, 500 s spacing between injections, 250 µcal/s reference power, 300 rpm stirring at 25 °C for 6m or 220 rpm stirring at 25 °C for 8k. […]

STAT4 Arg598Ala = target: T2, STAT4 Arg598Ala (Homo sapiens, UniProt Q14765, R598A); assay: Isothermal titration calorimetry (ITC), STAT4 Arg598Ala; conditions: n = 4
T2 construct: 6xHis; made in house
T2 sequence (Q14765 1-748 R598A): T1 sequence (Q14765 1-748 K580A) with A580K, R598A

STAT3, sequence (P40763 whole entry): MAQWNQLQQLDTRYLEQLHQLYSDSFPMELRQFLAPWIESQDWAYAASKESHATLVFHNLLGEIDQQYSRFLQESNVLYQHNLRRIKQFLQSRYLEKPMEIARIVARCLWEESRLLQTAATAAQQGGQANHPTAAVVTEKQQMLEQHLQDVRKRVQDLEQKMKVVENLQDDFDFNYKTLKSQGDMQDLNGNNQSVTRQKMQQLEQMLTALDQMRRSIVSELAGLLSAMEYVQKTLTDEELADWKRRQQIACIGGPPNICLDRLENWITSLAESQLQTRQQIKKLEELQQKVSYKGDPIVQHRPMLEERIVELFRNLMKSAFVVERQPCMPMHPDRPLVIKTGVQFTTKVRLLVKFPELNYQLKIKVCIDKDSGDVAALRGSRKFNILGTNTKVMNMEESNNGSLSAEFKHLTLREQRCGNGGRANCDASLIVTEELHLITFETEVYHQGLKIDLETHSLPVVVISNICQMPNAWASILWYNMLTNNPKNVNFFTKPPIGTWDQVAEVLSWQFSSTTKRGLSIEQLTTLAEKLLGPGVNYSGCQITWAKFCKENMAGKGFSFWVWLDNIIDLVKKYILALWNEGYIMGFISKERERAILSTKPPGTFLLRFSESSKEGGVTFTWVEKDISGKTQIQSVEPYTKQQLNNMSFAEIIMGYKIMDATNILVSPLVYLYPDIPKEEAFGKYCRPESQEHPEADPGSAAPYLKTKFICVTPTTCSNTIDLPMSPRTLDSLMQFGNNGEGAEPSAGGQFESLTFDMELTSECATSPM

SMILES | ΔT agg of STAT3 (STAT3; CETSA, NK-92 cell lysates, versus DMSO control) [°C] | T agg of STAT3 (STAT3; CETSA, NK-92 cell lysates, DMSO control 51.0 ± 0.3 °C, n = 3) [°C] | stabilization of STAT3 against thermal degradation (STAT3; lysates from NK-92 cells, Ac-pYLPQTV-NH2 at 100 µM) | binding to STAT4 point mutant Lys580Ala (ITC) (STAT4 Lys580Ala) | binding to STAT4 point mutant Arg598Ala (ITC) (STAT4 Arg598Ala)
Cc1cc(-c2ccc(C(F)(F)P(=O)(O)O)c(F)c2)cs1 [Compound 8k] | −0.4 | 50.6 ± 0.2 | does not stabilize | – | –
O=P(O)(O)Oc1ccc(-c2ccc3ccccc3c2)cc1F [Compound 6m] | – | – | – | too weak for reliable quantification | no heat release
